According to ChEMBL document CHEMBL1153519, “Characterization of novel selective H1-antihistamines for clinical evaluation in the treatment of insomnia” (J Med Chem, 2009):
Activity calls are given as the source filed them. The calls are words filed in the database; no cut-off is given here.

Tests used:
[1] = target: T1, 5-hydroxytryptamine receptor 2A (Homo sapiens, UniProt P28223); experiment: Displacement of [3H]ketanserin from human 5HT2A receptor expressed in HEK293 Flp-In cells by liquid scintillation counting; format: cell-based
Histamine H1 receptor = Histamine H1 receptor (Homo sapiens, UniProt P35367); experiment: Displacement of [3H]pyrilamine from human histamine H1 receptor expressed in CHO Flp-In cells by liquid scintillation counting; format: cell-based
[2] = target: Histamine H3 receptor (Homo sapiens) (UniProt Q9Y5N1); experiment: Displacement of [3H]R-alpha-methylhistamine from human histamine H3 receptor expressed in CHO Flp-In cells by liquid scintillation counting; format: cell-based
[3] = target: T2, Muscarinic acetylcholine receptor M1 (Homo sapiens, UniProt P11229); experiment: Displacement of [3H]N-methylscopolamine from human muscarinic M1 receptor expressed in CHO Flp-In cells by liquid scintillation counting; format: cell-based
T2 sequence (P11229 whole entry): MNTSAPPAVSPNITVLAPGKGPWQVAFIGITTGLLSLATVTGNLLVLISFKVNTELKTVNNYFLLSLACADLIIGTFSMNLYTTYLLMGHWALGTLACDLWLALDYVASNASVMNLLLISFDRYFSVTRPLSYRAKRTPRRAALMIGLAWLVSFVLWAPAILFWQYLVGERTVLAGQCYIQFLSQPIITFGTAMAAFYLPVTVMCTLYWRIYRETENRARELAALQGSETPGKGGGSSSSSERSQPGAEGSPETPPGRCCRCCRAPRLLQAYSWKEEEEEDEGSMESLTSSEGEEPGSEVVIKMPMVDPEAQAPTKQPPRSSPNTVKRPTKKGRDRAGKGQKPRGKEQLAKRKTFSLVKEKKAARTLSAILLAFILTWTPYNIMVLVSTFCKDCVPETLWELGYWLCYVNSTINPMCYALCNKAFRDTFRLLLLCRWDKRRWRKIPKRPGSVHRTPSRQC

in vitro [4] = conditions: human, liver microsomes
Cytochrome P450 2D6 = Cytochrome P450 2D6 (Homo sapiens, UniProt P10635); experiment: Inhibition of recombinant CYP2D6 in presence of NADPH generating system
Rattus norvegicus [5] = experiment: Increase in NREM sleep in CD IGS rat model of insomnia at 60 mg/kg, po after 4 hrs by EEG/EMG study relative to vehicle control; format: functional
[6] = target: T1, 5-hydroxytryptamine receptor 2A; experiment: Displacement of [3H]ketanserin from human 5HT2A receptor expressed in HEK293 Flp-In cells at 10 uM by liquid scintillation counting; format: cell-based
Rattus norvegicus [7] = experiment: Increase in REM sleep in CD IGS rat model of insomnia at 60 mg/kg, po after 4 hrs by EEG/EMG study relative to vehicle control; format: functional
Rattus norvegicus [8] = experiment: Effect on sleep-awake pattern in CD IGS rat model of insomnia assessed as latency to 20 secs REM sleep at 60 mg/kg, po by EEG/EMG study relative to vehicle control; format: functional
Rattus norvegicus [9] = experiment: Effect on sleep-awake pattern in CD IGS rat model of insomnia assessed as latency to 1 min NREM sleep at 60 mg/kg, po by EEG/EMG study relative to vehicle control; format: functional
Rattus norvegicus [10] = experiment: Increase in REM sleep in CD IGS rat model of insomnia at 30 mg/kg, po after 4 hrs by EEG/EMG study relative to vehicle control; format: functional
Rattus norvegicus [11] = experiment: Effect on sleep-awake pattern in CD IGS rat model of insomnia assessed as latency to 20 secs REM sleep at 30 mg/kg, po by EEG/EMG study relative to vehicle control; format: functional
Rattus norvegicus [12] = experiment: Increase in NREM sleep in CD IGS rat model of insomnia at 30 mg/kg, po after 4 hrs by EEG/EMG study relative to vehicle control; format: functional
Rattus norvegicus [13] = experiment: Effect on sleep-awake pattern in CD IGS rat model of insomnia assessed as latency to 1 min NREM sleep at 30 mg/kg, po by EEG/EMG study relative to vehicle control; format: functional
[14] = target: Voltage-gated inwardly rectifying potassium channel KCNH2 (Homo sapiens, UniProt Q12809); experiment: Inhibition of human ERG expressed in HEK293 cells by patch-clamp technique
Cytochrome P450 3A4 = Cytochrome P450 3A4 (Homo sapiens, UniProt P08684); experiment: Inhibition of recombinant CYP3A4 in presence of NADPH generating system; format: ADME; conditions: recombinant enzyme
[15] = target: Muscarinic acetylcholine receptor M3 (Homo sapiens, UniProt P20309); experiment: Displacement of [3H]N-methylscopolamine from human muscarinic M3 receptor expressed in CHO Flp-In cells by liquid scintillation counting; format: cell-based
[16] = Half life in human; format: ADME, organism-based; conditions: in vivo
[17] = Elimination half life in human at 50 mg, po; format: ADME, organism-based; conditions: in vivo, read-out: beta t1/2 (converted)
[18] = Systemic clearance in rat by LC-MS-MS analysis; conditions: human, in vivo
[19] = Plasma concentration in rat at 30 mg/kg, po after 1 hr
in vitro [20] = conditions: rat, liver microsomes
Cynomolgus monkey = experiment: Cardiotoxicity in conscious cynomolgus monkey assessed as decrease in heart rate up to 200 mg/kg administered as escalated dose with 1 week washout period between doses by telemetry study; format: toxicity, organism-based, Macaca fascicularis; set-up: dose 200 mg/kg; scale not given: the % may be the effect or the level left; conditions: in vivo, 168 h
[21] = Drug level in rat brain at 30 mg/kg after 4 hrs by LC-MS-MS analysis; format: ADME, organism-based; set-up: dose 30 mg/kg; conditions: read-out: Drug uptake
[22] = Drug level in rat brain at 30 mg/kg after 1 hr by LC-MS-MS analysis; format: ADME, organism-based; set-up: dose 30 mg/kg; conditions: read-out: Drug uptake

Chain of Histamine H1 receptor (P35367 whole entry): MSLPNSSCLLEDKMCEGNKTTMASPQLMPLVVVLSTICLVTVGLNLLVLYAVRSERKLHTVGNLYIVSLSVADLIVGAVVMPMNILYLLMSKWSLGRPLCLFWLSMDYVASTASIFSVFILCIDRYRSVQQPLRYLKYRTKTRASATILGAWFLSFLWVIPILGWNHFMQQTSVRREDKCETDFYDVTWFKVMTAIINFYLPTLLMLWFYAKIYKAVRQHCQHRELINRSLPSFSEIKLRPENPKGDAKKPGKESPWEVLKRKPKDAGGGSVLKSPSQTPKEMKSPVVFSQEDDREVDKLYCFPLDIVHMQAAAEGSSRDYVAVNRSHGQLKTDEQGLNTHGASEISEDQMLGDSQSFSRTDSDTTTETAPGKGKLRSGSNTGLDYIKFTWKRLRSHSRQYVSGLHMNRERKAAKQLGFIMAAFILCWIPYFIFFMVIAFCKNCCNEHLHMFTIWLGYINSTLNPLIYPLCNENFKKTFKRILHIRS
T1 sequence (P28223 whole entry): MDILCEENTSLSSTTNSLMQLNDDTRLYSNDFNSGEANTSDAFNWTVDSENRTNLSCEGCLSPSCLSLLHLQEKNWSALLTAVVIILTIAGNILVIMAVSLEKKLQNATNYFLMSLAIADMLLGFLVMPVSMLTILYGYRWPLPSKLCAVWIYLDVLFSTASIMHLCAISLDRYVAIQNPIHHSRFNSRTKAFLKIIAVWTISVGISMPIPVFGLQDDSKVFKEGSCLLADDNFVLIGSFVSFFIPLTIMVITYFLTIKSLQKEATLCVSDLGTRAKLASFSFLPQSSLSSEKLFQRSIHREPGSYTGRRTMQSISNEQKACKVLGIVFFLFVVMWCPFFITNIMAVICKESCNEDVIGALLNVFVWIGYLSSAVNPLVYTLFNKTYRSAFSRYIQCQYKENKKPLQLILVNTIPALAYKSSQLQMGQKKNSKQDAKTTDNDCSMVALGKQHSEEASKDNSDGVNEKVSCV
Chain of Histamine H3 receptor (Homo sapiens) (Q9Y5N1 whole entry): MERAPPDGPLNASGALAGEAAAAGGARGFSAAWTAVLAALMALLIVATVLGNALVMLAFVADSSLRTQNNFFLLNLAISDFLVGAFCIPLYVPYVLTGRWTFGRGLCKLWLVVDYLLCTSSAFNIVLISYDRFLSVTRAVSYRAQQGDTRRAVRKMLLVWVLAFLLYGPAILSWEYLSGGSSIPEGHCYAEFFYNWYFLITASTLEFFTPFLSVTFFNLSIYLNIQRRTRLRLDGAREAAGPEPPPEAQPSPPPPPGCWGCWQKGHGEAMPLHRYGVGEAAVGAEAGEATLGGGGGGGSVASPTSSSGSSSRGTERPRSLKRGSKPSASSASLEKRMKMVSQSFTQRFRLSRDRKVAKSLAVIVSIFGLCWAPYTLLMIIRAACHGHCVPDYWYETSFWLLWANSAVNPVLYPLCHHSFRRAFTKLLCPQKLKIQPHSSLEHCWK
Chain of Cytochrome P450 2D6 (P10635 whole entry): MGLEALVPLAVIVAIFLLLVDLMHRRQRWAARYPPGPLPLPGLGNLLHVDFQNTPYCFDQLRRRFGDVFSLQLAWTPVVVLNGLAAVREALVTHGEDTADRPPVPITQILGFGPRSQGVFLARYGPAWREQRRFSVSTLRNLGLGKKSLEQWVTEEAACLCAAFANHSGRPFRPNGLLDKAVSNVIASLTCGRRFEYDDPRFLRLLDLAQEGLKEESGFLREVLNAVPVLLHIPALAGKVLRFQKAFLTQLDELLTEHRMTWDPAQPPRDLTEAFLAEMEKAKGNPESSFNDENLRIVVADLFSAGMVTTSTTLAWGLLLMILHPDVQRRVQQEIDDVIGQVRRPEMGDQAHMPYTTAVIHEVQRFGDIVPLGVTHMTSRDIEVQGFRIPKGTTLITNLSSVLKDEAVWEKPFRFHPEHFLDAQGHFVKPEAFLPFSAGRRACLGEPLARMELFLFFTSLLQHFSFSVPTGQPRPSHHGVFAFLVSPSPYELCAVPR
Chain of Voltage-gated inwardly rectifying potassium channel KCNH2 (Q12809 whole entry): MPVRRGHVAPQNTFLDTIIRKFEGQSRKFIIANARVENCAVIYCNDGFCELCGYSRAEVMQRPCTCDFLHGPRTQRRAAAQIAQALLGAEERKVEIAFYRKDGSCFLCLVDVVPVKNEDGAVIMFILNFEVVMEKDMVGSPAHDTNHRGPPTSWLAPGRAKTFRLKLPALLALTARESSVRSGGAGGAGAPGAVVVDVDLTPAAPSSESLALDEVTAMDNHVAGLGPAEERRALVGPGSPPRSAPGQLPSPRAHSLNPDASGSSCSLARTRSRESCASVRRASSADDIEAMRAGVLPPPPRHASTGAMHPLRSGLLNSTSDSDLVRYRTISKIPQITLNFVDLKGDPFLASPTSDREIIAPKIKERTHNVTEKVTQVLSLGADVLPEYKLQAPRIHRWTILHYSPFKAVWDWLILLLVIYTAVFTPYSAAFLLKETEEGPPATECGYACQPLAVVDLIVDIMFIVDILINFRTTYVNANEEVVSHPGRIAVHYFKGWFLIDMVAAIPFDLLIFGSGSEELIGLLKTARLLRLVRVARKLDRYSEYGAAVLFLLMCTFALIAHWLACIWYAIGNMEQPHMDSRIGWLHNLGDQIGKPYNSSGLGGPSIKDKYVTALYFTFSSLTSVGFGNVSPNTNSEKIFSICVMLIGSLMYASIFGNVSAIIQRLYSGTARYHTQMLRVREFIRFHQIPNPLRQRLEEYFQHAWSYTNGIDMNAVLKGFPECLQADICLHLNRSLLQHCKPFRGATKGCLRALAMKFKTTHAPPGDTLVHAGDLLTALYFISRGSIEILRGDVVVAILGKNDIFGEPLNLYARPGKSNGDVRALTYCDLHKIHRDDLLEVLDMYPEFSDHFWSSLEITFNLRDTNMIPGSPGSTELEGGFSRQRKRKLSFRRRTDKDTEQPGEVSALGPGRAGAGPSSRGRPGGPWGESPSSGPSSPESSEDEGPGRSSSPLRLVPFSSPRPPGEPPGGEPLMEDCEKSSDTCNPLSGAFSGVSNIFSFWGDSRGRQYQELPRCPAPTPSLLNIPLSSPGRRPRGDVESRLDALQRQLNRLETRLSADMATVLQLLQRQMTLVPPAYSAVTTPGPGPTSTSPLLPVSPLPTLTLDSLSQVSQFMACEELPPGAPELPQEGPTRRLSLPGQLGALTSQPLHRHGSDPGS
Chain of Cytochrome P450 3A4 (P08684 whole entry): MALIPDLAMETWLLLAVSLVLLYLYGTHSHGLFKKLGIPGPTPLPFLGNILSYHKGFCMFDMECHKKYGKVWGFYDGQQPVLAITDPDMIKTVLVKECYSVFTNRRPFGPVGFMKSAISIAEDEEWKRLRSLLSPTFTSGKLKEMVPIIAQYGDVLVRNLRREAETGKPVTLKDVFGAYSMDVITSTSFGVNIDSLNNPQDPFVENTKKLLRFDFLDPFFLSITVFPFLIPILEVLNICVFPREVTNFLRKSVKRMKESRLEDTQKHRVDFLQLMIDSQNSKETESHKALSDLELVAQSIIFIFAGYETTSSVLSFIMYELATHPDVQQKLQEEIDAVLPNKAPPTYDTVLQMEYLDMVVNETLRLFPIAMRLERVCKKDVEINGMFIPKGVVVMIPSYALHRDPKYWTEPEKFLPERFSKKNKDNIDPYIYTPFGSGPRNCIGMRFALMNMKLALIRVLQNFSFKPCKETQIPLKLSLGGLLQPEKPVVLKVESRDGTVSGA
Chain of Muscarinic acetylcholine receptor M3 (P20309 whole entry): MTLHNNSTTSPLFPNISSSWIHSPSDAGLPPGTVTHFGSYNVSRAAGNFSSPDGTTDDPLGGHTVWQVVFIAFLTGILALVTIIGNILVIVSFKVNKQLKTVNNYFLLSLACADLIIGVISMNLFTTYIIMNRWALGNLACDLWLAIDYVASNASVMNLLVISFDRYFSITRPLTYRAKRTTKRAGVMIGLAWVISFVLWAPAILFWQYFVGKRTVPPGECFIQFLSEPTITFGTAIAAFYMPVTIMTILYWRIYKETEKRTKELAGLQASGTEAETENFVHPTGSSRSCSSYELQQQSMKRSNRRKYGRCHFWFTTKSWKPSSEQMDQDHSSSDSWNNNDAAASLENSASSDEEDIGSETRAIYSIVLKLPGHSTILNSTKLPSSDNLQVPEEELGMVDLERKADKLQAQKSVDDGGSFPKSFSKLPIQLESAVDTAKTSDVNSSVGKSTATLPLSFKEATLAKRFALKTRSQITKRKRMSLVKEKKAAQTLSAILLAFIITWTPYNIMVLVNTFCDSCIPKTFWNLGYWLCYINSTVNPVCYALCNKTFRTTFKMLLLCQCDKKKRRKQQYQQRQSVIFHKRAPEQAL

SMILES | Ki [1] [nM] | Ki (Histamine H1 receptor) [nM] | Activity [2] | Ki [3] [nM] | CLhep predicted at 1 h, 1 µM (in vitro [4]) [mL/min/kg] | IC50 (Cytochrome P450 2D6) [nM] | Activity (Rattus norvegicus [5]) [%] | Activity [6] [%] | Activity (Rattus norvegicus [7]) [%] | Activity (Rattus norvegicus [8]) [%] | Activity (Rattus norvegicus [9]) [%] | also measured
CN(C)CCc1sc2ccccc2c1Cc1ccc(F)cc1 | 90 | 11 | inactive | 2000 | 16 | 200 |  |  |  |  |  | 
C[C@H](C1=C(CCN(C)C)Cc2ccccc21)c1cnccn1 |  |  | inactive |  |  |  | 145 | 32 | 129 | 104 | 109 | 
CN(C)CCC1=C(Cc2cnccn2)c2ccccc2C1 | 600 |  | inactive |  |  |  | 159 |  | 113 | 92 | 79 | 
Cc1ccc(-c2nc3ccc(C)cn3c2CC(=O)N(C)C)cc1 [ZOLPIDEM] |  |  |  |  |  |  |  |  |  |  |  | Activity (Rattus norvegicus [10]): 42%; Activity (Rattus norvegicus [11]): 199%; Activity (Rattus norvegicus [12]): 220%; Activity (Rattus norvegicus [13]): 18%
C[C@H](C1=C(CCN(C)C)Cc2ccccc21)c1ccccn1 |  | 0.4 | inactive | 2400 | 7 | 32500 | 132 | 33 | 126 | 136 | 134 | IC50 [14]: 900 nM; inhibition (INH) (Cytochrome P450 3A4): Not Active
CN(C)CCC1=C(Cc2ccc(F)cc2)c2ccccc2C1 | 140 | 0.6 | inactive |  | 13 | 300 |  |  |  |  |  | 
CN(C)CCc1sc2ccccc2c1Cc1cnccn1 |  | 75 | inactive |  |  |  |  |  |  |  |  | 
C[C@@H](c1ccccn1)c1c(CCN(C)C)oc2ccccc12 |  | 0.9 | inactive | 320 | 10 |  |  | 62 |  |  |  | Ki [15]: 76 nM
CC(C1=C(CCN(C)C)Cc2ccccc21)c1ccccn1 (racemic) |  |  |  |  |  |  |  |  |  |  |  | half-life [16]: 5 h; half-life [17]: 18 h
C[C@@H](c1ccccn1)c1c(CCN(C)C)sc2ccccc12 |  | 4 | inactive | 5300 | 10 | 28200 |  | 31 |  |  |  | clearance [18]: 5.2 mL/min/kg; Activity (Rattus norvegicus [10]): 167%; concentration at 1 h [19]: 4 ng/mL; Activity (Rattus norvegicus [11]): 138%; CLint scaled at 1 h, 1 µM (in vitro [20]): 2300 mL/min/kg; Activity (Rattus norvegicus [12]): 142%; Activity (Rattus norvegicus [13]): 124%; Activity (Cynomolgus monkey): 16%; IC50 [14]: 1400 nM; concentration at 4 h [21]: 23 ng/mL; concentration at 1 h [22]: 29 ng/mL
